Read-outs that look alike come from different tables or passages of the source.
System: HBV
Experiment: HBV-DNA Antiviral Assay Using HepG2.2.15 Cells (extracellular HBV DNA by qPCR)
Type: cell-based, hepatitis B virus (HBV)
Details: HBV DNA inhibition, HepG2.2.15 cells, extracellular HBV DNA by qPCR, read-out: EC50
Procedure, shortened: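 HepG2.2.15 cells were treated on day 1 with 8 concentrations (4-fold dilutions, duplicate; 0.5% DMSO), with compound-containing medium refreshed on day 4, at 37 °C. On day 7, supernatant HBV DNA was measured by qPCR against a plasmid standard curve, with inhibition normalised between DMSO and ETV controls. EC50/EC90 and CC50 (CellTiter-Glo ATP) came from variable-slope fits.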

Row | SMILES | EC50 (Hepatitis B virus) [nM] | EC50 [nM]
1 | Cc1c(C(=O)C(=O)NC(C)(C)c2cnn(C)c2)c(C)n(C)c1C(=O)Nc1ccc(F)c(C(F)(F)F)c1 [Compound 98, N-[4-fluoro-3-(trifluoromethyl)phenyl]-1,3,5-trimethyl-4-[2-[[1-methyl-1-(1-methylpyrazol-4-yl)ethyl]amino]-2-oxo-acetyl]pyrrole-2-carboxamide] | < 1 | 
2 | C#CC1(NC(=O)C(=O)c2c(Cl)c(C(=O)Nc3ccc(F)c(C#N)c3)n(C)c2C)CC(F)(F)C1 [Compound 52, 3-chloro-N-(3-cyano-4-fluoro-phenyl)-4-[2-[(1-ethynyl-3,3-difluoro-cyclobutyl)amino]-2-oxo-acetyl]-1,5-dimethyl-pyrrole-2-carboxamide] | < 1 | 
3 | Cc1c(C(=O)C(=O)NC(C)(C)c2cn[nH]c2)c(C)n(C)c1C(=O)Nc1ccc(F)c(C(F)(F)F)c1 [Compound 97, N-[4-fluoro-3-(trifluoromethyl)phenyl]-1,3,5-trimethyl-4-[2-[[1-methyl-1-(1H-pyrazol-4-yl)ethyl]amino]-2-oxo-acetyl]pyrrole-2-carboxamide] | < 1 | 
4 | Cc1c(C(=O)C(=O)NC(C)(C)c2nnco2)c(C)n(C)c1C(=O)Nc1ccc(F)c(C#N)c1 [Compound 139, N-(3-cyano-4-fluoro-phenyl)-1,3,5-trimethyl-4-[2-[[1-methyl-1-(1,3,4-oxadiazol-2-yl)ethyl]amino]-2-oxo-acetyl]pyrrole-2-carboxamide] | 1 to 10 | 
5 | C#C[C@@H](COC)NC(=O)C(=O)c1c(C)c(C(=O)Nc2ccc(F)c(C#N)c2)n(C)c1C [Compound 28a, N-(3-cyano-4-fluoro-phenyl)-4-[2-[[(1S)-1-(methoxymethyl)prop-2-ynyl]amino]-2-oxo-acetyl]-1,3,5-trimethyl-pyrrole-2-carboxamide] | 1 to 10 | 
6 | C#CC1(NC(=O)C(=O)c2c(C)c(C(=O)Nc3ccnc(F)c3Br)n(C)c2C)CC(F)(F)C1 [Compound 68, N-(3-bromo-2-fluoro-4-pyridyl)-4-[2-[(1-ethynyl-3,3-difluoro-cyclobutyl)amino]-2-oxo-acetyl]-1,3,5-trimethyl-pyrrole-2-carboxamide] | < 1 | 
7 | C#CC1(NC(=O)C(=O)c2c(C)c(C(=O)Nc3ccc(F)c(C(F)(F)F)c3)n(C)c2C)CC(F)(F)C1 [Compound 37, 4-[2-[(1-ethynyl-3,3-difluoro-cyclobutyl)amino]-2-oxo-acetyl]-N-[4-fluoro-3-(trifluoromethyl)phenyl]-1,3,5-trimethyl-pyrrole-2-carboxamide] | < 1 | 
8 | C#CC(C)(C)NC(=O)C(=O)c1c(C)c(C(=O)Nc2ccc(F)c(C#N)c2)n(C)c1C [Compound 11, N-(3-cyano-4-fluoro-phenyl)-4-[2-(1,1-dimethylprop-2-ynylamino)-2-oxo-acetyl]-1,3,5-trimethyl-pyrrole-2-carboxamide] | < 1 | 
9 | C#C[C@](CO)(NC(=O)C(=O)c1c(C)c(C(=O)Nc2ccc(F)c(C#N)c2)n(C)c1C)C1CC1 [Compound 63a, N-(3-cyano-4-fluoro-phenyl)-1,3,5-trimethyl-4-[2-oxo-2-[[(1R)-1-cyclopropyl-1-(hydroxymethyl)prop-2-ynyl]amino]acetyl]pyrrole-2-carboxamide] | 1 to 10 | 
10 | C#CC1(NC(=O)C(=O)c2c(C)c(C(=O)Nc3ccc(F)c(C(F)(F)F)c3)n(C)c2C)CC(O)C1 (stereo not shown) [Compound 49, 4-[2-[(1-ethynyl-3-hydroxy-cyclobutyl)amino]-2-oxo-acetyl]-N-[4-fluoro-3-(trifluoromethyl)phenyl]-1,3,5-trimethyl-pyrrole-2-carboxamide] | < 1 | 
11 | C=CC1(NC(=O)C(=O)c2c(C)c(C(=O)Nc3ccc(F)c(C#N)c3)n(C)c2C)CC(F)(F)C1 [Compound 53, N-(3-cyano-4-fluoro-phenyl)-4-[2-[(3,3-difluoro-1-vinyl-cyclobutyl)amino]-2-oxo-acetyl]-1,3,5-trimethyl-pyrrole-2-carboxamide] | 1 to 10 | 
12 | C#CC1(NC(=O)C(=O)c2c(C)c(C(=O)Nc3ccc(F)c(C#N)c3)n(C)c2C)CCCC1 [Compound 109, N-(3-cyano-4-fluoro-phenyl)-4-[2-[(1-ethynylcyclopentyl)amino]-2-oxo-acetyl]-1,3,5-trimethyl-pyrrole-2-carboxamide] | 1 to 10 | 
13 | Cc1c(C(=O)C(=O)NC(C)(C)c2ccncn2)c(C)n(C)c1C(=O)Nc1ccc(F)c(C(F)(F)F)c1 [Compound 153, N-[4-fluoro-3-(trifluoromethyl)phenyl]-1,3,5-trimethyl-4-[2-[(1-methyl-1-pyrimidin-4-yl-ethyl)amino]-2-oxo-acetyl]pyrrole-2-carboxamide] | < 1 | 
14 | C#CC1(NC(=O)C(=O)c2c(C)c(C(=O)Nc3ccnc(F)c3Br)n(C)c2C)COC1 [Compound 67, N-(3-bromo-2-fluoro-4-pyridyl)-4-[2-[(3-ethynyloxetan-3-yl)amino]-2-oxo-acetyl]-1,3,5-trimethyl-pyrrole-2-carboxamide] | 10 to 100 | 
15 | Cc1c(C(=O)C(=O)NC(C)(C)c2cncnc2)c(C)n(C)c1C(=O)Nc1ccc(F)c(C(F)(F)F)c1 [Compound 148, N-[4-fluoro-3-(trifluoromethyl)phenyl]-1,3,5-trimethyl-4-[2-[(1-methyl-1-pyrimidin-5-yl-ethyl)amino]-2-oxo-acetyl]pyrrole-2-carboxamide] | 1 to 10 | 
16 | C#C[C@@](C)(NC(=O)C(=O)c1c(C)c(C(=O)Nc2ccc(F)c(C#N)c2)n(C)c1C)C(F)(F)F [Compound 79a, N-(3-cyano-4-fluoro-phenyl)-1,3,5-trimethyl-4-[2-oxo-2-[[(1R)-1-methyl-1-(trifluoromethyl)prop-2-ynyl]amino]acetyl]pyrrole-2-carboxamide] | 1 to 10 | 
17 | C#CCNC(=O)C(=O)c1c(F)c(C(=O)Nc2ccc(F)c(C#N)c2)n(C)c1C [Compound 13, N-(3-cyano-4-fluoro-phenyl)-3-fluoro-1,5-dimethyl-4-[2-oxo-2-(prop-2-ynylamino)acetyl]pyrrole-2-carboxamide] | 1 to 10 | 
18 | Cc1c(C(=O)C(=O)NC2(C#CC(F)(F)F)CC(O)C2)c(C)n(C)c1C(=O)Nc1ccc(F)c(C#N)c1 (stereo not shown) [Compound 62, N-(3-cyano-4-fluoro-phenyl)-4-[2-[[3-hydroxy-1-(3,3,3-trifluoroprop-1-ynyl)cyclobutyl]amino]-2-oxo-acetyl]-1,3,5-trimethyl-pyrrole-2-carboxamide] | 100 to 1000 | 
19 | C#C[C@](CO)(NC(=O)C(=O)c1c(C)c(C(=O)Nc2ccc(F)c(C#N)c2)n(C)c1C)C(F)(F)F [Compound 71a, N-(3-cyano-4-fluoro-phenyl)-1,3,5-trimethyl-4-[2-oxo-2-[[(1R)-1-(hydroxymethyl)-1-(trifluoromethyl)prop-2-ynyl]amino]acetyl]pyrrole-2-carboxamide] | 1 to 10 | 
20 | Cc1c(C(=O)C(=O)NC2(c3c[nH]cn3)COC2)c(C)n(C)c1C(=O)Nc1ccc(F)c(C#N)c1 [Compound 157, N-(3-cyano-4-fluoro-phenyl)-4-[2-[[3-(1H-imidazol-4-yl)oxetan-3-yl]amino]-2-oxo-acetyl]-1,3,5-trimethyl-pyrrole-2-carboxamide] | 1 to 10 | 
21 | C#CCNC(=O)C(=O)c1c(C)c(C(=O)Nc2ccnc(Br)c2F)n(C)c1C [Compound 4, N-(2-bromo-3-fluoro-4-pyridyl)-1,3,5-trimethyl-4-[2-oxo-2-(prop-2-ynylamino)acetyl]pyrrole-2-carboxamide] | 1 to 10 | 
22 | Cc1c(C(=O)C(=O)NC(C)(C)c2cn[nH]c2)c(C)n(C)c1C(=O)Nc1ccc(F)c(C#N)c1 [Compound 96, N-(3-cyano-4-fluoro-phenyl)-1,3,5-trimethyl-4-[2-[[1-methyl-1-(1H-pyrazol-4-yl)ethyl]amino]-2-oxo-acetyl]pyrrole-2-carboxamide] | 1 to 10 | 
23 | C#CC(C)(C)NC(=O)C(=O)c1c(C)c(C(=O)Nc2ccc(F)c(C(F)(F)F)c2)n(C)c1C [Compound 35, 4-[2-(1,1-dimethylprop-2-ynylamino)-2-oxo-acetyl]-N-[4-fluoro-3-(trifluoromethyl)phenyl]-1,3,5-trimethyl-pyrrole-2-carboxamide] | < 1 | 
24 | Cc1c(C(=O)C(=O)NC(C)(C)c2c[nH]cn2)c(C)n(C)c1C(=O)Nc1ccc(F)c(C#N)c1 [Compound 104, N-(3-cyano-4-fluoro-phenyl)-4-[2-[[1-(1H-imidazol-4-yl)-1-methyl-ethyl]amino]-2-oxo-acetyl]-1,3,5-trimethyl-pyrrole-2-carboxamide] | 1 to 10 | 
25 | Cc1c(C(=O)C(=O)NCC#CC2CC2)c(C)n(C)c1C(=O)Nc1ccc(F)c(C#N)c1 [Compound 22, N-(3-cyano-4-fluoro-phenyl)-4-[2-(3-cyclopropylprop-2-ynylamino)-2-oxo-acetyl]-1,3,5-trimethyl-pyrrole-2-carboxamide] | 1 to 10 | 
26 | Cc1c(C(=O)C(=O)NC2(c3c[nH]cn3)COC2)c(C)n(C)c1C(=O)Nc1ccc(F)c(C(F)(F)F)c1 [Compound 156, N-[4-fluoro-3-(trifluoromethyl)phenyl]-4-[2-[[3-(1H-imidazol-4-yl)oxetan-3-yl]amino]-2-oxo-acetyl]-1,3,5-trimethyl-pyrrole-2-carboxamide] | < 1 | 
27 | Cc1c(C(=O)C(=O)NC(C)(C)c2ccc(F)cn2)c(C)n(C)c1C(=O)Nc1ccc(F)c(C(F)(F)F)c1 [Compound 147, 4-[2-[[l-(5-fluoro-2-pyridyl)-1-methyl-ethyl]amino]-2-oxo-acetyl]-N-[4-fluoro-3-(trifluoromethyl)phenyl]-1,3,5-trimethyl-pyrrole-2-carboxamide] |  | 1 to 10
28 | C#C[C@@H](NC(=O)C(=O)c1c(C)c(C(=O)Nc2ccc(F)c(C#N)c2)n(C)c1C)C1CC1 [Compound 23b, N-(3-cyano-4-fluoro-phenyl)-1,3,5-trimethyl-4-[2-oxo-2-[[(1S)-1-cyclopropylprop-2-ynyl]amino]acetyl]pyrrole-2-carboxamide] | < 1 | 
